Measured values from PubChem BioAssay (NCI).
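A five-concentration, 48-hour dose response in 96-well plates underlies each endpoint, interpolated linearly between surrounding concentrations. TGI denotes the concentration required for complete inhibition of growth.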

Columns and labels:
Assay in all cases: NCI anticancer screen, dose series, 48 h
[1] = system: HOP-62 NSCLC
[2] = system: CAKI-1 renal
[3] = system: DLD-1 colon
[4] = system: SK-MEL-5 melanoma
[5] = system: UACC-257 melanoma
[6] = system: SK-OV-3 ovarian
[7] = system: KM20L2 colon
[8] = system: OVCAR-4 ovarian
[9] = system: A549 NSCLC
[10] = system: SNB-19 CNS
[11] = system: M14 melanoma
[12] = system: 786-0 renal
[13] = system: UACC-62 melanoma
[14] = system: ACHN renal
[15] = system: NCI-H226 lung
[16] = system: A498 renal
[17] = system: SF-295 CNS
[18] = system: OVCAR-8 ovarian
[19] = system: HL-60(TB) leukemia
[20] = system: CCRF-CEM leukemia
[21] = system: IGROV1 ovarian
[22] = system: SF-268 CNS
[23] = system: COLO 205 colon
[24] = system: SW-620 colon
[25] = system: OVCAR-5 ovarian
[26] = system: NCI-H23 lung
[27] = system: SF-539 CNS
[28] = system: XF 498 CNS
[29] = system: SN12C renal
[30] = system: DMS 273 small cell lung
[31] = system: HCT-116 colon
[32] = system: NCI-H460 lung
[33] = system: HT29 colon
[34] = system: DMS 114 small cell lung
[35] = system: MALME-3M melanoma
[36] = system: MOLT-4 leukemia
[37] = system: SNB-75 CNS
[38] = system: HCT-15 colon
[39] = system: KM12 colon
[40] = system: LOX IMVI melanoma
[41] = system: K-562 leukemia
[42] = system: EKVX NSCLC
[43] = system: SK-MEL-28 melanoma
[44] = system: TK-10 renal
[45] = system: HCC-2998 colon
[46] = system: RPMI-8226 leukemia
[47] = system: LXFL 529 NSCLC
[48] = system: U251 CNS
[49] = system: NCI-H522 lung
[50] = system: OVCAR-3 ovarian
[51] = system: UO-31 renal
[52] = system: M19-MEL melanoma
[53] = system: SK-MEL-2 melanoma
[54] = system: RXF 393 renal
[55] = system: HOP-92 NSCLC
[56] = system: HOP-18 NSCLC
[57] = system: SR leukemia
[58] = system: SNB-78 CNS

For `COc1ccccc1N=NC(C(=O)c1ccccc1)C(=O)c1ccccc1`, which TGI [1] is on record?
Its TGI is 52.1 µM.

What about the TGI [2] of the same compound?
The TGI was 77.3 µM.

What about the TGI [3] of the same compound?
Its TGI is 54.9 µM.

What about the TGI [4] of the same compound?
Its TGI is 54.5 µM.

What about the TGI [5] of the same compound?
The TGI was 89.2 µM.

What about the TGI [6] of the same compound?
The TGI was 89.4 µM.

And the TGI [7]?
The TGI was 58.2 µM.

And the TGI [8]?
The TGI was 74.2 µM.

And the TGI [9]?
Its TGI is 78.3 µM.

And the TGI [10]?
The TGI was 70.1 µM.

What about the TGI [11] of the same compound?
Its TGI is 31.6 µM.

What about the TGI [12] of the same compound?
Its TGI is > 100 µM.

And the TGI [13]?
Its TGI is 52.3 µM.

What about the TGI [14] of the same compound?
Its TGI is 83.6 µM.

And the TGI [15]?
Its TGI is 35.9 µM.

What about the TGI [16] of the same compound?
Its TGI is > 100 µM.

What about the TGI [17] of the same compound?
The TGI was 87.6 µM.

What about the TGI [18] of the same compound?
The TGI was > 100 µM.

And the TGI [19]?
The TGI was 33.7 µM.

What about the TGI [20] of the same compound?
The TGI was 60 µM.

What about the TGI [21] of the same compound?
The TGI was > 100 µM.

And the TGI [22]?
Its TGI is > 100 µM.

What about the TGI [23] of the same compound?
Its TGI is > 100 µM.

What about the TGI [24] of the same compound?
Its TGI is > 100 µM.

And the TGI [25]?
The TGI was 71.5 µM.

And the TGI [26]?
Its TGI is 68.1 µM.

What about the TGI [27] of the same compound?
Its TGI is > 100 µM.

And the TGI [28]?
Its TGI is 53.5 µM.

And the TGI [29]?
The TGI was 53.1 µM.

And the TGI [30]?
Its TGI is 57.9 µM.

What about the TGI [31] of the same compound?
The TGI was 28.6 µM.

And the TGI [32]?
Its TGI is 82.2 µM.

And the TGI [33]?
Its TGI is 82.3 µM.

And the TGI [34]?
Its TGI is 40.5 µM.

And the TGI [35]?
The TGI was 88.9 µM.

And the TGI [36]?
Its TGI is 60.4 µM.

What about the TGI [37] of the same compound?
Its TGI is 82.3 µM.

And the TGI [38]?
Its TGI is 47.6 µM.

And the TGI [39]?
Its TGI is > 100 µM.

What about the TGI [40] of the same compound?
Its TGI is 51.1 µM.

What about the TGI [41] of the same compound?
Its TGI is > 100 µM.

What about the TGI [42] of the same compound?
The TGI was 67.8 µM.

What about the TGI [43] of the same compound?
Its TGI is > 100 µM.

And the TGI [44]?
Its TGI is > 100 µM.

What about the TGI [45] of the same compound?
Its TGI is 70.4 µM.

And the TGI [46]?
Its TGI is 58.7 µM.

What about the TGI [47] of the same compound?
The TGI was > 100 µM.

And the TGI [48]?
Its TGI is > 100 µM.

What about the TGI [49] of the same compound?
Its TGI is 47 µM.

What about the TGI [50] of the same compound?
Its TGI is > 100 µM.

And the TGI [51]?
Its TGI is 37.3 µM.

And the TGI [52]?
The TGI was 41.3 µM.

And the TGI [53]?
The TGI was 53.4 µM.

What does the source list for `CCC1(O)C(=O)OCc2c1cc1n(c2=O)Cc2cc3cc(OC)c(OC)cc3nc2-1` (centres undefined)?
TGI [1]: 8.38 µM; TGI [4]: > 100 µM; TGI [5]: > 100 µM; TGI [6]: 89 µM; TGI [7]: > 100 µM; TGI [8]: > 100 µM; TGI [54]: 71.8 µM; TGI [9]: > 100 µM; TGI [10]: 85.2 µM; TGI [11]: > 100 µM; TGI [12]: 54.2 µM; TGI [14]: 37.3 µM; TGI [15]: 88.6 µM; TGI [16]: > 100 µM; TGI [17]: > 100 µM; TGI [18]: > 100 µM; TGI [19]: > 100 µM; TGI [20]: > 100 µM; TGI [21]: 67.4 µM; TGI [22]: > 100 µM; TGI [23]: > 100 µM; TGI [25]: > 100 µM; TGI [26]: > 100 µM; TGI [27]: 35.2 µM; TGI [28]: > 100 µM; TGI [29]: 87.4 µM; TGI [31]: > 100 µM; TGI [32]: 28.5 µM; TGI [33]: > 100 µM; TGI [34]: > 100 µM; TGI [35]: > 100 µM; TGI [55]: > 100 µM; TGI [36]: > 100 µM; TGI [37]: 41 µM; TGI [39]: > 100 µM; TGI [40]: > 100 µM; TGI [41]: > 100 µM; TGI [42]: > 100 µM; TGI [43]: > 100 µM; TGI [44]: > 100 µM; TGI [45]: > 100 µM; TGI [46]: > 100 µM; TGI [56]: > 100 µM; TGI [47]: > 100 µM; TGI [48]: 35 µM; TGI [49]: > 100 µM; TGI [50]: > 100 µM; TGI [51]: > 100 µM; TGI [57]: 7.68 µM

How did the TGI [1] turn out when `CCOC(=O)c1c(NNc2ccccc2)nc2ccccc2c1-c1ccccc1` was run?
The TGI was 59.3 µM.

And the TGI [2]?
Its TGI is > 100 µM.

And the TGI [3]?
Its TGI is > 100 µM.

And the TGI [4]?
Its TGI is 35.2 µM.

What about the TGI [5] of the same compound?
Its TGI is > 100 µM.

And the TGI [6]?
The TGI was > 100 µM.

And the TGI [7]?
Its TGI is > 100 µM.

What about the TGI [8] of the same compound?
Its TGI is > 100 µM.

What about the TGI [54] of the same compound?
Its TGI is 86.3 µM.

And the TGI [9]?
Its TGI is 95.7 µM.

What about the TGI [10] of the same compound?
Its TGI is > 100 µM.

And the TGI [11]?
Its TGI is 80.8 µM.

And the TGI [12]?
The TGI was > 100 µM.

And the TGI [13]?
The TGI was 32 µM.

And the TGI [14]?
Its TGI is > 100 µM.

What about the TGI [15] of the same compound?
Its TGI is 92 µM.

What about the TGI [16] of the same compound?
Its TGI is > 100 µM.

What about the TGI [17] of the same compound?
Its TGI is > 100 µM.

What about the TGI [18] of the same compound?
The TGI was 82.2 µM.

And the TGI [19]?
Its TGI is 44.3 µM.

What about the TGI [20] of the same compound?
Its TGI is 58.3 µM.

And the TGI [21]?
Its TGI is > 100 µM.

And the TGI [22]?
Its TGI is 91.9 µM.

And the TGI [23]?
Its TGI is > 100 µM.

What about the TGI [24] of the same compound?
Its TGI is > 100 µM.

What about the TGI [25] of the same compound?
Its TGI is > 100 µM.

What about the TGI [26] of the same compound?
The TGI was 50.9 µM.

And the TGI [27]?
Its TGI is 74.9 µM.

What about the TGI [29] of the same compound?
The TGI was 92.3 µM.

What about the TGI [30] of the same compound?
Its TGI is > 100 µM.

What about the TGI [31] of the same compound?
Its TGI is 47.2 µM.

What about the TGI [32] of the same compound?
Its TGI is 67.3 µM.

What about the TGI [33] of the same compound?
The TGI was > 100 µM.

What about the TGI [34] of the same compound?
Its TGI is 32.9 µM.

And the TGI [35]?
Its TGI is 64.3 µM.

And the TGI [55]?
The TGI was > 100 µM.

What about the TGI [36] of the same compound?
Its TGI is 42.9 µM.

And the TGI [37]?
The TGI was 93.2 µM.

And the TGI [38]?
The TGI was > 100 µM.

What about the TGI [39] of the same compound?
Its TGI is > 100 µM.

What about the TGI [40] of the same compound?
The TGI was 40.1 µM.

What about the TGI [41] of the same compound?
Its TGI is 77.9 µM.

And the TGI [42]?
Its TGI is > 100 µM.

What about the TGI [43] of the same compound?
The TGI was > 100 µM.

And the TGI [44]?
Its TGI is > 100 µM.

And the TGI [45]?
The TGI was > 100 µM.

What about the TGI [46] of the same compound?
The TGI was 47.3 µM.

What about the TGI [58] of the same compound?
The TGI was 88.6 µM.

And the TGI [56]?
The TGI was 77.3 µM.

And the TGI [47]?
The TGI was > 100 µM.

And the TGI [48]?
The TGI was > 100 µM.

What about the TGI [49] of the same compound?
The TGI was 56.8 µM.

And the TGI [50]?
Its TGI is 67 µM.

And the TGI [51]?
Its TGI is 66.3 µM.

What about the TGI [52] of the same compound?
The TGI was 52.5 µM.

What about the TGI [53] of the same compound?
Its TGI is 32.1 µM.

And the TGI [57]?
Its TGI is 56.4 µM.
